Results taken from publication PMC9006213, “Multifunctional, Multivalent PIC Polymer Scaffolds for Targeting Antigen-Specific, Autoreactive B Cells” (ACS Biomaterials Science & Engineering, 2022).

What was measured:
B-cell compartments = details: clinical use; cited from earlier work
From the text: These autoreactive MBCs likely exert pathogenic effector functions through the co-stimulation of T cells, the production of pro-inflammatory cytokines, and the recruitment of neutrophils to sites of the local inflammation.[1] The involvement of these cells in the inflammatory disease process is addi ...

[1] = test system: patient-derived ACPA and immortalized ACPA-expressing B cells; details: cited from earlier work
From the text: To study the application of PICs for the detection of ACPA-expressing B cells, we prepared a set of fluorescently labeled PICs containing CCP and arginine-containing control peptides (CArgP, Figure 1B), as well as tetrameric CCP-SA and CArgP-SA containing the same fluorophores (Figure 1C).[15] […] In CArgP, the citrulline residue that is essential for recognition by ACPA is replaced by an arginine. Besides the ...

[2] = test system: ACPA-expressing B cells in peripheral blood of RA patients; experiment: Identification and immunophenotyping of primary ACPA-expressing B cells in peripheral blood of RA patients; type: cell-based, human; details: median; n = 5; PICs and SA tetramer
Experimental: Having determined the specificity of CCP-PIC-AF647 and its ability to detect small subpopulations of B cells, we used the combination of PICs to identify and characterize the primary ACPA-expressing B cells in the peripheral blood of five RA patients. […] The median frequency was determined at approximately 0.007% cells out of total B cells (Figure 5A,B). To assess whether the characteristics of the patient’s ACPA-expressing B cells were consistent with previous data, we also examined various B-cell subset-defining markers such as CD20, CD27, IgG-class B-cell receptors, and the activation surface marker CD80 (Figure 5B).
Each dot represents one patient sample. Connected dots depict data from individual patient samples. Statistical differences between groups were determined using the Wilcoxon test. (ns, p > 0.05).
To identify and characterize ACPA-expressing B cells in RA blood, PBMC were isolated from peripheral blood of RA donors as above.
For stimulation experiments, ACPA-expressing Ramos B cells were used. Ramos cells were transduced with ACPA-encoding lentiviral vectors 8. Ramos cells were cultured in RPMI 1640 (Thermofisher) supplemented with 8% FCS, 100 U/ml PS, 2 mM GlutaMax and 10 mM HEPES).
To determine which ratio of CCP and fluorophore in PIC to use, two ratios of CCP-AF647 were tested, i.e. 10:1 and 2:1. […]

## Rituximab: broadly B-cell depleting agent approved for clinical use
B-cell compartments
  depletion of B-cell compartments: depletes the naïve and MBC compartments but leaves the compartment of antibody-secreting cells largely intact

## cyclic citrullinated peptide [CCP]
[1]
  recognition by ACPA and ACPA-expressing B cells: recognized by both patient-derived ACPA and immortalized ACPA-expressing B cells

## polyisocyanopeptides [PICs]
[2]
  ACPA-expressing B cells positive for memory B cell markers CD20 and CD27: 50%
